This is an account of results in patent US20030017965A1, “Methods for treating certain diseases using naaladase inhibitors” (priority 1998, published 2003).

The test system of one data set is mice. Put plainly: In vivo toxicity study in mice. The conditions noted are these: for Survival Rate After 5 days (%): injected. From the text: The in vivo toxicological effect of NAALADase inhibition has been examined in mice. […] Representative disclosure may be found in U.S. Pat. Nos. 5,672,592, 5,795,877, 5,863,536 and 5,880,112, and allowed U.S. patent applications Ser. Nos. 08/825,997, 08/833,628, 08/835,572 and 08/842,360, for which the issue fees have been paid, the entire contents of which patents and applications are herein incorporated by reference.
The mice were observed two times per day for 5 consecutive days.

In the next data set the test system is TGF-β2. Put plainly: TGF-β2 concentration in ischemic cell cultures. In kind it is cell-based. The conditions noted are these: added to ischemic cultures (20-minute ischemia). The source says: (§1) The compounds of the invention were used to produce a neuroprotective effect in both in vitro and in vivo cell culture models of stroke.
The test system of data set [1] is middle cerebral artery occlusion (MCAO) in rats. Put plainly: Neuroprotection following middle cerebral artery occlusion (MCAO) in rats. Type of data set: in vivo. The source says:
The effect of TGF-β neutralizing antibodies on the neuroprotection afforded by 2-(phosphonomethyl)-pentanedioic acid following middle cerebral artery occlusion (MCAO) in rats was also studied to give a more relevant in vivo model of stroke.
Thus, it was appreciated that the regulation of TGF-βs may have implications, not only in its utility in stroke, but also in other neurological and psychiatric diseases. In addition, this mechanism may have implications in myelination, prostate cancer, inflammation, diabetes, and angiogenesis.

Data set [2] relates to TGF-β1. Put plainly: TGF-β1 concentration in ischemic cell cultures. The conditions noted are these: added to ischemic cultures (20-minute ischemia). In kind it is cell-based.
From the text: as §1

For data set [3], the system named is TGF-β1. Put plainly: TGF-β1 levels by microdialysis in MCAO rats. In kind it is in vivo. The following applies: FIG. 6.
Another data set deals with ischemic cultures. Put plainly: Neuroprotection in ischemic cell culture model of stroke with neutralizing antibodies. The conditions noted are these: for neuroprotective effect in presence of FGF antibody: FGF neutralizing antibody added; for neuroprotective effect in presence of TGF-β neutralizing antibodies: TGF-β neutralizing antibodies added. In kind it is cell-based. The protocol: as §1
TGF-β neutralizing antibodies were then added to determine if the neuroprotective effect would be blocked. The neuroprotective effect of 2-(phosphonomethyl)-pentanedioic acid was blocked by TGF-βs neutralizing bodies in this cell culture model. However, when other growth factor antibodies, such as FGF antibody, were added, the neuroprotective effect of 2-(phosphonomethyl)-pentanedioic acid was not reversed in culture.

Data set [4] has as its target T1, Myeloperoxidase (MPO) isolated from human polymorphonuclear leukocytes (Homo sapiens, UniProt P05164).
T1 construct: Myeloperoxidase (MPO) isolated from human polymorphonuclear leukocytes; purchased Calbiochem 475911; host or cells: human polymorphonuclear leukocytes (natural source)
The following applies: guaiacol substrate, reference data; cited from earlier work.

Where [5] appears, read: listed as 2-(phosphonomethyl)-pentanedioic acid.

SMILES strings stand for the structures.

T1 sequence (P05164 279-745 limits assumed): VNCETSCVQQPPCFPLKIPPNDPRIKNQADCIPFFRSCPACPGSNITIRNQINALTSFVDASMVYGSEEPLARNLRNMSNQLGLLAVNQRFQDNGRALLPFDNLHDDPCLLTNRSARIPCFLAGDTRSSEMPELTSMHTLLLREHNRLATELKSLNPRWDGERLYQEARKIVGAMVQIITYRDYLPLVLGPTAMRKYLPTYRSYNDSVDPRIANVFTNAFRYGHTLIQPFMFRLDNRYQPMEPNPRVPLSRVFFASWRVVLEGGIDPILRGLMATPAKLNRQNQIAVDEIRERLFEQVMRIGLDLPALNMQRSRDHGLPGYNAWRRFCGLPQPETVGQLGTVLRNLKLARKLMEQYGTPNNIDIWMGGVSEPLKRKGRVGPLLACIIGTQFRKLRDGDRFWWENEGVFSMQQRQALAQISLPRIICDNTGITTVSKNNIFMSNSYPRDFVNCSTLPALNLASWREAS
T1 sequence (P05164 165-273 limits assumed): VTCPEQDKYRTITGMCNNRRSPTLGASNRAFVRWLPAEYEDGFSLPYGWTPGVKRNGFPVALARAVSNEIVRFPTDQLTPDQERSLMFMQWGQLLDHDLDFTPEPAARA

With `O=C(O)CCC(CP(=O)(O)O)C(=O)O` (stereo not drawn) [Compound 3, 2-(phosphonomethyl)-pentanedioic acid], the “Survival Rate After 5 days (%)” value with mice (dose 1 mg/kg), in the data set with mice (dose 5 mg/kg), in the data set on mice (dose 10 mg/kg), in the data set with mice (dose 30 mg/kg), in the data set with mice (dose 100 mg/kg) and in the data set with mice (dose 300 mg/kg) was 100% throughout. The “Survival Rate After 5 days (%)” value with mice (dose 500 mg/kg) came to 66.7%. The “toxicological effect in vivo” value with mice (observed for 5 days) is reported as “non-toxic”. Further, the “level of TGF-β2” value in the data set with TGF-β2 is recorded as “increased significantly”. In addition, the neuroprotection entry in data set [1] (MCAO rats) is “provided neuroprotection”. For the same molecule, the “neuroprotective effect after TGF-β neutralizing antibodies” value in data set [1] (MCAO rats pre-treated with TGF-β neutralizing antibodies, FIG. 5) is given as “significantly attenuated”. In the data set with TGF-β1 [2], the “level of TGF-β1” value is “increased significantly”. In addition, in the data set with TGF-β1 [3], the “TGF-β1 during occlusion and reperfusion” value is recorded as “significant rise”. The entries for the “neuroprotective effect in presence of FGF antibody” value in the data set with ischemic cultures (setting [5]) and in the data set on ischemic cultures (listed as compound 3) were “not reversed” and “non-reversal”, respectively. In addition, the entries for the “neuroprotective effect in presence of TGF-β neutralizing antibodies” value in the data set with ischemic cultures (setting [5]) and in the data set on ischemic cultures (listed as compound 3) were “blocked” and “reversal”, respectively.
A word on the IC50: it is the midpoint of a concentration-inhibition curve. As to `CC(Cc1ccc(O)c(O)c1)C(C)Cc1ccc(O)c(O)c1` (stereo not drawn) [NDGA (Nordihydroguaretic Acid), Nordihydroguaretic Acid], the IC50 in data set [4] was 1 µM.
